The values that follow come from US8802114B2, “Pharmaceutical compositions of iron for oral administration” (priority 2011, dated 2014).

Data set [1] in a line: Sodium caprate (C10) solution compatibility of iron compounds, with centrifugation test for precipitation. Format: physicochemical. The settings on record: in 55 mg/mL sodium caprate (C10). Here is the method:
A test for precipitation was carried out. The solution formulations were centrifuged initially at 1000 rpm for 5 minutes. […] They were further centrifuged at 5000 rpm for 5 minutes.

Data set [2] can be described thus: Solution stability of sodium EDTA Fe+3 chelate with sodium caprate (visual observation). Format: physicochemical. The settings on record: sodium caprate 55 mg/mL.

On to `NCC(=O)[O-].NCC(=O)[O-].[Fe+2]` [Ferrous Bisglycinate (Ferrochel), Ferrous Bisglycinate], for which, in data set [1], the “Sodium caprate solution compatibility (observation)” value is listed as “precipitates in the presence of C10”.

As for `O=C(O)CN(CCN(CC(=O)O)CC(=O)O)CC(=O)O.[Fe+3].[Na+]` [sodium EDTA iron chelate, ethylenediaminetetraacetic acid ferric sodium], in data set [2], the “Compatibility with sodium caprate formulation (pre-formulation)” value is on record as “no gross incompatibility”.

Turning to “Ferrous Gluconate [Ferrous Gluconate FCC/USP*]”, the “Sodium caprate solution compatibility (observation)” value in data set [1] is on record as “C10 incompatibility”.
